The values that follow come from patent US11352338B2, “Substituted isoindolinones” (BioTheryX, Inc., priority 2018, dated 2022).

Structures are written as SMILES. Like-named read-outs stand apart in the source and are kept apart here.

The test system of one experiment is IL-1β. The experiment in a line: IL-1β inhibition, LPS-induced PBMCs or CD14+ monocytes, Meso Scale assay. The format is cell-based. The conditions noted are these: LPS 100 ng/mL 18-24 h, read-out: % Inhibition compared to DMSO, IL-1β; for inhibition at 1 µM: tested at 1 μM; for inhibition at 10 µM: tested at 10 μM. On the procedure: (§1) Either frozen primary blood mononuclear cells (PBMCs) or frozen CD14+ mobilized peripheral blood monocytes were purchased from AllCells (PB003F, Normal Peripheral Blood MNC (Alameda, Calif.)). Cells were quick thawed, washed 1-time with RPMI-1640 (10% FBS/1% Pen-Strep) and plated in 96 well plates at 200,000 cells per well. Cells were pretreated with DMSO only or with the indicated compound for 1 h and then induced with 100 ng/mL lipopolysaccharide (LPS) for 18-24 h. The supernatant was analyzed for IL-1β, IL-6, and TNFα, using Meso Scale assay according to manufacturer's protocol. The negative control wells were treated with DMSO.
(§2) IL-1β, IL-6 and TNFα activities were tested at two different concentrations (1 μM and 10 μM) and the results are shown in Tables 2 and 3 respectively.

For a further experiment, the target named is T1, PDE6D (Homo sapiens, UniProt O43924+Q96SW2).
T1 construct: endogenous in cells; host or cells: MV-4-11
The experiment in a line: Western blot, degradation of cellular PDE6D in MV-4-11 cells. The format is cell-based. The conditions noted are these: for Dmax at 1 µM: MV4-11, tested at 1 μM, MV-4-11 cells, 6-8 hours, read-out: % Degradation compared to DMSO, PDE6D. As to the method:
(§3) MV-4-11 cells were grown in RPMI 1640 media supplemented with 10% fetal bovine serum, streptomycin and penicillin.
(§4) Cells were cultured at approximately 10^6 cells per mL and incubated in DMSO or the indicated compounds for 6-8 hours. Whole cell extracts were prepared using RIPA lysis buffer according to manufacturer's protocol (Pierce). Briefly, 4×10^6 cells were washed once in PBS, the cell pellets were resuspended in RIPA lysis buffer and allowed to incubate for 15 minutes on ice. Cells debris was removed by centrifugation and the cleared whole cell lysates were transferred to new tubes for further analysis.
(§5) For Western blot analysis, whole cell protein extracts were separated on 4-12% SDS-polyacrylamide gels, transferred to nitrocellulose and probed with the indicated primary antibodies. Membranes were subsequently washed and probed with the appropriate IRDye secondary antibodies (LI-COR). The signal was detected using the Odyssey Imaging System (LI-COR).
(§6) The following antibodies were used in these studies: Anti-PDE6D antibody: Santa Cruz Biotechnology, sc-166854 (Dallas, Tex.); Anti-Ikaros: Abcam, ab191394 (Cambridge, Mass.); anti-CK1α antibody: Abcam, ab108296 (Cambridge, Mass.); β-Actin (8H10D10) mouse monoclonal antibody: Cell Signaling Technology, #3700 (Danvers, Mass.); IRDye 680RD Goat anti-rabbit antibody: LI-COR, 926-68071 (Lincoln, Nebr.); and IRDye 800CW Goat anti-mouse antibody: LI-COR, 926-32210 (Lincoln, Nebr.).
(§7) The % degradation values are reported as “A”, “B”, “C”, or “D.” “A” represents a % degradation value of less than 25% (value<25%); “B” represents a % degradation value of equal to or more than 25% and less than 50% (25%≤value<50%); “C” represents a % degradation value of equal to or more than 50% and less than 75% (50%≤value<75%); and “D” represents a % degradation value of equal to or more than 75% (value≥75%). […] was used as control.
Background: In western blotting, separated proteins are transferred to a membrane and probed.

A further experiment has as its target T2, Ikaros (Homo sapiens, UniProt Q13422+Q96SW2).
T2 construct: endogenous in cells; host or cells: MV-4-11
The experiment in a line: Western blot, degradation of cellular Ikaros in MV-4-11 cells. The format is cell-based. Conditions: MV4-11, tested at 1 μM, 6-8 hours, read-out: % Degradation compared to DMSO, Ikaros. On the procedure: as §3, §4, §5, §6, §7

The target of the next experiment is T3, CK1α (Homo sapiens, UniProt P48729+Q96SW2).
T3 construct: endogenous in cells; host or cells: MV-4-11
The experiment in a line: Western blot, degradation of cellular CK1α in MV-4-11 cells. The format is cell-based. Conditions: MV4-11, tested at 1 μM, 6-8 hours, read-out: % Degradation compared to DMSO, CK1α. On the procedure: as §3, §4, §5, §6, §7

In another experiment the test system is IL-6. The experiment in a line: IL-6 inhibition, LPS-induced PBMCs or CD14+ monocytes, Meso Scale assay. Conditions: LPS 100 ng/mL 18-24 h, read-out: % Inhibition compared to DMSO, IL-6; for inhibition at 1 µM: tested at 1 μM; for inhibition at 10 µM: tested at 10 μM. It is filed as cell-based. As to the method: as §1, §2
A further experiment has as its system TNFα. The experiment in a line: TNFα inhibition, LPS-induced PBMCs or CD14+ monocytes, Meso Scale assay. It is filed as cell-based. Conditions: LPS 100 ng/mL 18-24 h, read-out: % Inhibition compared to DMSO, TNFα; for inhibition at 1 µM: tested at 1 μM; for inhibition at 10 µM: tested at 10 μM. As to the method: as §1, §2
The test system of a further experiment is IL-2. The experiment in a line: IL-2 inhibition assay, anti-CD3 (OKT3) stimulated PBMCs, Mesoscale IL-2 analysis. It is filed as cell-based, human. Conditions: for fold induction at 1 µM / fold induction at 10 µM: Homo sapiens, PBMC, read-out: IL-2, % Induction compared to DMSO. On the procedure: For the IL-2 analysis, 96 well plates were precoated with 1 μg/mL anti-human CD3 antibody (OKT3, eBioscience Inc., San Diego, Calif.). After washing with PBS, the indicated compound was added (50 μL/well) followed by PBMCs diluted at 3-4 million cells/mL (150 μL/well). Plates were incubated for 24 h and the supernatants collected for Mesoscale IL-2 analysis. IL-2 activity is measured as fold difference from the DMSO control. […]
In Table 4, the fold-change values are reported as “A”, “B”, “C”, or “D”. “A” represents a fold-change value of equal to or less than 0.5 (value≤0.5); “B” represents a fold-change value of more than 0.5 and equal to or less than 1 (0.5<value≤1); “C” represents a fold-change value of more than 1 and less than 1.5 (1<value<1.5); and “D” represents a fold-change value of equal to or more than 1.5 (value≥1.5).

The mark [1] stands for this setting: PBMCs on anti-CD3, 24 h, fold difference from DMSO control.
[2] abbreviates: 10 μM, PBMCs on anti-CD3, 24 h, fold difference from DMSO control.

T2 sequence (Q13422 whole entry): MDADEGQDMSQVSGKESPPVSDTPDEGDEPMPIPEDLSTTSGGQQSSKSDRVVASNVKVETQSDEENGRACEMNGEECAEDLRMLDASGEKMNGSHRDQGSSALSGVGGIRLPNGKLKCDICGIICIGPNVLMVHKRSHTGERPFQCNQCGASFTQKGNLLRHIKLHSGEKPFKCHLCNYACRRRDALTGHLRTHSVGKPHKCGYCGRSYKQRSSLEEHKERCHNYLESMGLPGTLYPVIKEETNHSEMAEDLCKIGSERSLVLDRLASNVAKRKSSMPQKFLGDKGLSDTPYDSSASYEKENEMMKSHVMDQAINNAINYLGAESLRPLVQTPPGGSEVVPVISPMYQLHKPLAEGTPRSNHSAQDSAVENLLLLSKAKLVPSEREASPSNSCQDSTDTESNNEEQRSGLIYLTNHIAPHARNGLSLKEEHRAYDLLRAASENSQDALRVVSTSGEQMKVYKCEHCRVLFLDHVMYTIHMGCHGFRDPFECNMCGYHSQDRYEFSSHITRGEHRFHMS
T2 sequence (Q96SW2 whole entry): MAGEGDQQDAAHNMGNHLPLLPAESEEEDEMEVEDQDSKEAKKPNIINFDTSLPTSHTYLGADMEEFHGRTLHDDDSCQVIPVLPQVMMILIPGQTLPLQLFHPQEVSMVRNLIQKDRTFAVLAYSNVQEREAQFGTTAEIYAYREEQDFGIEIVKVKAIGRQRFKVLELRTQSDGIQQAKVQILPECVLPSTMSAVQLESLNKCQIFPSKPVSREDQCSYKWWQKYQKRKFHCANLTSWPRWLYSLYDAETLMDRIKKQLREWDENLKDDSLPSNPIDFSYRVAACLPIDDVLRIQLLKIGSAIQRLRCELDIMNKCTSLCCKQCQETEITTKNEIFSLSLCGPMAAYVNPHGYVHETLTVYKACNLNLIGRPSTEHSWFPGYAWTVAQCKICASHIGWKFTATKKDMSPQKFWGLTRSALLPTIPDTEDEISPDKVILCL
T2 sequence (Q16531 whole entry partner): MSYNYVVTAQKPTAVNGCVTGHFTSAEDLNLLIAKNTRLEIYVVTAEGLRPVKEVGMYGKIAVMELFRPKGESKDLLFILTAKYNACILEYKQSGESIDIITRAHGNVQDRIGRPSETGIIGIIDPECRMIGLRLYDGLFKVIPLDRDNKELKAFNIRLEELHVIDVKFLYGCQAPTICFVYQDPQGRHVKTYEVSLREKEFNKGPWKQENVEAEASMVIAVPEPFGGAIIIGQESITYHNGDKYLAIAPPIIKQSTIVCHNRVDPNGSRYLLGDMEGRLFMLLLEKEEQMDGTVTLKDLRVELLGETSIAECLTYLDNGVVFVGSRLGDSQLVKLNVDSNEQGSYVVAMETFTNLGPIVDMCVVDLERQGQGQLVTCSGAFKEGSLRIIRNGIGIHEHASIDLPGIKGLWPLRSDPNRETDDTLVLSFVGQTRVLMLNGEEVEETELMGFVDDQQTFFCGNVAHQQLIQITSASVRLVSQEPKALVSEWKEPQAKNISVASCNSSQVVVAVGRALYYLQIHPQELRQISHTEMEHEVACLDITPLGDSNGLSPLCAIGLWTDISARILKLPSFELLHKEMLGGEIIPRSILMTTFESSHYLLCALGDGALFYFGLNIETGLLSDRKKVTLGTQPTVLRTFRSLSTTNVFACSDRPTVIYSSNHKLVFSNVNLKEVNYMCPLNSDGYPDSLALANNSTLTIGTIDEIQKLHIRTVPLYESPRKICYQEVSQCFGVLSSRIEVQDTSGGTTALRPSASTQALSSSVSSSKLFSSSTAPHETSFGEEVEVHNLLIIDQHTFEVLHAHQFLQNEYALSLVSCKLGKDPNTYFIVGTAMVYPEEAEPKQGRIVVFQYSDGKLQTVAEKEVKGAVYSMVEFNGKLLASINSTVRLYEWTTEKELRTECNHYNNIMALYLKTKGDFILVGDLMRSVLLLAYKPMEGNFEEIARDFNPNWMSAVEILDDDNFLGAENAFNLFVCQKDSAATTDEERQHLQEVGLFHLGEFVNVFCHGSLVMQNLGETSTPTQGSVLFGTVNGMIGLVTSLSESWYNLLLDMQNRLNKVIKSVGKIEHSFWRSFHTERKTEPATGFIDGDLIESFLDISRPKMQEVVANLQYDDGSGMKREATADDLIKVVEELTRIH
T1 sequence (O43924 whole entry): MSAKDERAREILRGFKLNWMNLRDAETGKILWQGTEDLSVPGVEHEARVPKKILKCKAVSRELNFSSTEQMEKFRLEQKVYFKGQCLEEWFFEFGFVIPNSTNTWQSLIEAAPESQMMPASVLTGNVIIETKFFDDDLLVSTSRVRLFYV
T1 sequence (Q96SW2 whole entry): as the sequence (Q96SW2 whole entry) above
T1 sequence (Q16531 whole entry partner): as the sequence (Q16531 whole entry partner) above
T3 sequence (P48729 whole entry): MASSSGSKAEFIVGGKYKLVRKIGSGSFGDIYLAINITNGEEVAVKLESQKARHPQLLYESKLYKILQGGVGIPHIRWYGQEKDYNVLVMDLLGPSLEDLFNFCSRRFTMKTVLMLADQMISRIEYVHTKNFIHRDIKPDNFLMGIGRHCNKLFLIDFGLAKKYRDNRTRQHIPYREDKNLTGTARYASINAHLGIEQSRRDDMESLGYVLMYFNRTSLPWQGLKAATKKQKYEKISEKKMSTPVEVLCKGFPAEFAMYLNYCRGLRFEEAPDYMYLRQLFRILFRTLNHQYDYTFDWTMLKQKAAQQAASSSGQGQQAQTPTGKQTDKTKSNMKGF
T3 sequence (Q96SW2 whole entry): as the sequence (Q96SW2 whole entry) above
T3 sequence (Q16531 whole entry partner): as the sequence (Q16531 whole entry partner) above

For `O=C1CCC(N2Cc3c(cc(F)cc3C3CCOCC3)C2=O)C(=O)N1` (stereo not shown) [Compound 32], the inhibition at 1 µM with IL-1β, in the experiment with IL-6 and with TNFα was below 10% each time. The Dmax at 1 µM on PDE6D was at least 75%; at Ikaros, below 25%; on CK1α, 25 to 50%.
On to `Cc1cccc2c1CN(C1CCCC(=O)NC1=O)C2=O` (stereo not shown) [Compound A, reference compound], for which the “PDE6D degradation activity (in words)” value on PDE6D (1 μM) is given as “did not demonstrate any measurable PDE6D degradation activity”. Further, the “% Degradation of PDE6D” value at PDE6D (1 μM, comparison with comparative compound A) is “A (a % degradation value of less than 25% (value<25%))”.
With `O=C1CCC(N2C(=O)c3cccc(C4CCCC4)c3C2=O)C(=O)N1` (stereo not shown) [Compound 10, 4-cyclopentyl-2-(2,6-dioxopiperidin-3-yl)isoindoline-1,3-dione], the values for the inhibition at 1 µM in the experiment with IL-1β, in the experiment with IL-6 and in the experiment on TNFα were below 10%, below 10% and 10 to 25%, respectively. In addition, the inhibition – broadly, how much of the control response was suppressed – at 10 µM with IL-1β is 10 to 25%; in the experiment on IL-6, 10 to 25%; in the experiment on TNFα, above 50%. Besides, the Dmax at 1 µM was 50 to 75% at PDE6D, 25 to 50% at Ikaros and below 25% at CK1α. In addition, in the experiment with IL-2 (setting [1]), the fold induction at 1 µM lay in the range of 1 to 1.5. Also, the fold induction at 10 µM in the experiment on IL-2 (setting [2]) is 0.5 to 1.
With `CCC1(N2Cc3c(cc(F)cc3C3CCCC3)C2=O)CCC(=O)NC1=O` (stereo not shown) [Compound 18, 3-(4-Cyclopentyl-6-fluoro-1-oxoisoindolin-2-yl)-3-ethylpiperidine-2,6-dione], the inhibition at 1 µM with IL-1β, in the experiment on IL-6 and with TNFα was below 10% throughout. In addition, the inhibition at 10 µM is 10 to 25% in the experiment with IL-1β, below 10% in the experiment with IL-6 and 25 to 50% with TNFα. Besides, the Dmax at 1 µM is 25 to 50% on PDE6D, below 25% at Ikaros and below 25% on CK1α. For the same molecule, in the experiment on IL-2 (setting [1]), the fold induction at 1 µM was 1 to 1.5. Moreover, the fold induction at 10 µM in the experiment with IL-2 (setting [2]) was 0.5 to 1.
Turning to `O=C1CCC(N2Cc3c(C4CCCC4)ccc(F)c3C2=O)C(=O)N1` (stereo not shown) [Compound 27], the inhibition at 1 µM with IL-1β is below 10%; in the experiment with IL-6, 10 to 25%; in the experiment on TNFα, 10 to 25%. Besides, the inhibition at 10 µM was below 10% in the experiment on IL-1β, below 10% with IL-6 and 25 to 50% in the experiment with TNFα. In addition, the Dmax at 1 µM on PDE6D, at Ikaros and on CK1α was below 25% each time. Further, the fold induction at 1 µM in the experiment with IL-2 (setting [1]) lay within 0.5 to 1. Moreover, the fold induction at 10 µM in the experiment with IL-2 (setting [2]) lay in the range of 0.5 to 1.
In the case of `Cc1c(F)cc2c(c1C1CCCC1)CN(C1CCC(=O)NC1=O)C2=O` (stereo not shown) [Compound 21, 3-(4-Cyclopentyl-6-fluoro-5-methyl-1-oxoisoindolin-2-yl) piperidine-2,6-dione], the inhibition at 1 µM with IL-1β, in the experiment with IL-6 and with TNFα was below 10% in each case. Further, the inhibition at 10 µM is below 10% in the experiment on IL-1β, below 10% in the experiment on IL-6 and 25 to 50% with TNFα. For the same molecule, the Dmax at 1 µM on PDE6D is at least 75%; on Ikaros it was 25 to 50%; at CK1α it was 25 to 50%. For the same molecule, the fold induction at 1 µM in the experiment on IL-2 (setting [1]) is at most 0.5. Moreover, the fold induction at 10 µM in the experiment with IL-2 (setting [2]) was at most 0.5.
In the case of `O=C1CCC(N2Cc3c(cc(F)cc3C(F)F)C2=O)C(=O)N1` (stereo not shown) [Compound 17, 3-(4-(Difluoromethyl)-6-fluoro-1-oxoisoindolin-2-yl) piperidine-2,6-dione], the inhibition at 1 µM in the experiment on IL-1β was below 10%; with IL-6, below 10%; in the experiment with TNFα, 25 to 50%. The figures for the inhibition at 10 µM in the experiment on IL-1β, in the experiment with IL-6 and in the experiment on TNFα were 10 to 25%, below 10% and 25 to 50%, respectively. The Dmax at 1 µM at PDE6D is 50 to 75%; at Ikaros, at least 75%. For the same molecule, the fold induction at 1 µM in the experiment with IL-2 (setting [1]) lay within 0.5 to 1. Also, the fold induction at 10 µM in the experiment on IL-2 (setting [2]) lay in the range of 0.5 to 1.
`Cc1cccc2c1CN(C1CCC(=O)NC1=O)C2=O` (stereo not shown) [Compound B, reference compound]: in the experiment with IL-2 (10 μM), the “effect on IL-2 (in words)” value was “induced IL-2 (upregulation)”. Also, the fold induction at 10 µM in the experiment with IL-2 (24 h, 10 μM, comparison with comparative compound B) was at least 1.5.
